These results are taken from patent publication US5093337A, “Substituted derivatives of 20,21-dinoreburnamenine, their use as medicaments and the pharmaceutical compositions containing them” (Roussel Uclaf, priority 1987, dated 1992).

A short description of test [1]: Test for hypobar anoxemia in a mouse (survival time). In kind it is in vivo. The settings on record: 10 mg/kg intraperitoneal, 60 minutes before the test; 600 mmHg depression; relative to control mice. As for the experimental part: 3) Test for hypobar anoxemia in a mouse
This consists of measuring for a maximum duration of 3 minutes the survival time of mice placed in a 2 liter chamber in which a 600 mmHg depression is carried out. Mice deprived of food for 6 hours are used. The products are administered at a dose of 10 mg/kg by intraperitoneal route in a volume of 0.2 ml/10 g 60 minutes before the test.
The increase in survival time is noted, expressed as a percentage of the animals treated in relation to the control animals, submitted to the same conditions.

Test [2] relates to adrenergic alpha2 receptors. Description: Affinity for adrenergic alpha2 receptors (inhibition of specific 3H rauwolscine fixation, rat cortex). Type of test: binding, rat (male; brain cortices). The settings on record: from CD (phentolamine) and CX (product) inhibiting 50% of specific fixation of 3H rauwolscine 0.15 nM, 25° C., 45 minutes. As for the experimental part: 1) Affinity for adrenergic alpha2 receptors:
10 cortices removed from the brains of male rats weighing on average 150 g are homogenized in 90 ml of 0.32M sucrose. After centrifuging 1,000 g of the homogenized mixture for 10 minutes at 0° C., the supernatant is centrifuged at 30,000 g for 10 minutes at 0°/+4° C. The deposit is put in suspension in 240 ml of buffer TrisHCl 50 mM pH 7.7, and centrifuged at 30,000 g for 15 minutes at 0°/+4° C. The new deposit obtained is put in suspension in 480 ml of buffer NaKPO4 pH 7.4 50 mM.
2 ml of suspension is then incubated for 45 minutes at 25° C. in the presence of ^3 H rauwolscine at a 0.15 nM concentration:
ii) with increasing concentrations of the product under test or,
iii) in order to determine the non-specific fixation,
with non-radioactive phentolamine at a 10^-5 M concentration.
The incubated suspensions are filtered on Whatman GF/C and the filters are washed three times with 5 ml of buffer NaKPO4 pH 7.4 at 0° C. The radioactivity of the filters is measured by liquid scintillation.
The affinity of the product tested for adrenergic alpha2 receptors is given in relation to the phentolamine as a reference product.
CD=concentration of phentolamine inhibiting 50% of the specific fixation of ^3 H rauwolscine;
CX=concentration of the product under test inhibiting 50% of the specific fixation of ^3 H rauwolscine.
The relative affinity is given by the relation: [formula]

A short description of test [3]: Asphyxic anoxemia (latency time for disappearance of the ECoG). In kind it is in vivo, Sprague Dawley (Charles River) male rat. The settings on record: 10 mg/kg intravenous, 3 minutes before asphyxia; rat; read-out: % of variation of the latency time for disappearance of the ECoG after asphyxia. As for the experimental part: The test is carried out using a Sprague Dawley (Charles River) male rat anaesthetized with ethyl ether, immobilized (tube curare 1 mg/kg I.V.) and artificially ventilated with air. The electrocorticogram (ECoG) and the arterial pressure are recorded. The rectal temperature is maintained at around 36° C. and the level of carbon dioxide in the blood is maintained between 35 and 40 torr. The products are administered at a dose of 10 mg/kg by intravenous route in a volume of 1 ml/kg 3 minutes before asphyxia obtained by stopping the artificial respiration. The latency time for the disappearance of the ECoG is measured.

The nature of test [4]: Anti-amnesic effect in a passive avoidance (electric shock treatment amnesia). In kind it is in vivo. The settings on record: 2 mg/kg by oral route; rat. The text has this:
Anti-Amnesic Effect in a Passive Avoidance
Rats are placed individually in the lighted compartment of a box having two compartments, the other one being dark. They take refuge immediately in the dark compartment and upon their entry the rats receive an electric shock (1 mA/5 sec) from the grated floor. […] In the second group, the electric shock is immediately followed by the application of an amnesic electric shock treatment (60 mA, 0.6 ms, 0.6 s) (electric shock treatment control group). The third group is identical to the second, but the electric shock treatment is immediately followed by the administration of the compound under test (treated group). Twenty-four hours later, the animals are replaced in the lighted compartment of the box and the latency time of entry into the dark compartment is measured (up to 300 sec. maximum). For the controls, this time is close to 300 sec. The electric shock treatment controls on the other hand move into the dark compartment much more rapidly (amnesic effect).

Test [5] can be described thus: Test for spontaneous alternation after septal cholinergic injury. In kind it is in vivo. To be noted: range of doses from 1 to 10 mg/kg i.p., 30 minutes before each session; rat. The text has this: 4) Test for spontaneous alternation after septal cholinergic injury
The behaviour of spontaneous alternation is an essential characteristic of the behavioural performance of the rat, which, put in a situation of choice between a familiar stimulus and a new stimulus, will choose the latter. Thus, in the case of a labyrinth Y, the animal will preferably choose an arm which has not yet been explored as opposed to an arm that he has just visited (spontaneous alternation). This faculty of discrimination between the "familiar" and the "new" implies the coming into play of a form of memory, the Short Term Memory or Work Memory. The performances of spontaneous alternation allow therefore an evaluation of the capacity of this type of memory.
The method used consists of creating a mnesic deficit in the rat, by lesion of the septo-hippocampic cholinergic system, and of researching whether the product under test is capable of reversing this deficit. In the present case, this deficit is evaluated in a spontaneous alternation behaviour; the lesioned animal has alternation performances of about 50%, because it carries out its choices by chance.
Each experiment comprises a control-vehicle group, a lesioned-vehicle group and one or two lesioned groups receiving the product under test. […]

A short description of test [6]: Test for anti-depressive activity (forced swimming, duration of immobility). Type of test: in vivo, Sprague Dawley rats. To be noted: ip, 5 min; i.p. 24, 5 and half an hour before the test; immobility over 5 minutes; rat; read-out: AD50 (the source's name). As for the experimental part: 5) Test for anti-depressive activity
The tests are carried out on groups of 5 Sprague Dawley rats. The unaffected animals are placed for 15 minutes in a vertical cylinder of plexiglass (diameter: 18 cm, height: 40 cm) containing water at 25° C. at a height of 15 cm (initial swimming test). They are then dried for 15 minutes in a chamber heated to 32° C.; 24 hours later, they are replaced in the cylinder, filled with water, and the total duration of the periods of immobility is measured over 5 minutes.
The compound is administered i.p. successively 24, 5 and half an hour before the test. The first administration takes place immediately after the initial swimming test, just before the animals are replaced in their breeding box.
The averages of the treated groups are compared with those of the control group using Dunnett's test.

On to `O=[N+]([O-])c1cccc2c1c1c3n2C(O)CC2CCCN(CC1)C32` (racemic) [Example 40, [(±) (16alpha)]-9-nitro-14,15dihydro-20,21-dinoreburnamenin-14-ol], for which the “% of increase in survival time” value in test [1] was determined as 22%.

As for `Clc1ccc2c3c4n(c2c1)C=C[C@H]1CCCN(CC3)[C@H]41` (relative stereo) [Example 2, [(±) (16alpha)]-11-chloro-20,21-dinoreburnamenine], in test [2], the “RAL (relative affinity, in relation to phentolamine as reference product)” value amounted to 110. In test [3], the change in vivo at 10 mg/kg was found to be 43%.

For `O[C@@H]1C[C@H]2CCCN3CCc4c(n1c1ccc(Cl)cc41)[C@H]23` (relative stereo) [Example 4, [(±) (14alpha, 16alpha)]-10-chloro-14,15-dihydro-20,21-dinoreburnamenin-14-ol], the “RAL (relative affinity, in relation to phentolamine as reference product)” value in test [2] is reported as 35.

Consider `Clc1ccc2c(c1)c1c3n2C=C[C@H]2CCCN(CC1)[C@H]32` (relative stereo) [Example 5, [(±) 16alpha]-10-chloro-20,21-dinoreburnamenine], for which the “RAL (relative affinity, in relation to phentolamine as reference product)” value in test [2] turned out to be 55. Also, in test [3], the change in vivo at 10 mg/kg is 26%.

As for `Cc1ccc2c3c4n(c2c1)[C@H](O)C[C@H]1CCCN(CC3)[C@H]41` (relative stereo) [Example 8, [(±) (14alpha, 16alpha)]-14,15-dihydro-11-methyl-20,21-dinoreburnamenin-14-ol], the change in vivo at 10 mg/kg in test [3] was determined as 37%.

As to `Cc1ccc2c3c4n(c2c1)C=C[C@H]1CCCN(CC3)[C@H]41` (relative stereo) [Example 10, [(±) (16alpha)]-11-methyl-20,21-dinoreburnamenine], the “RAL (relative affinity, in relation to phentolamine as reference product)” value in test [2] stood at 160. In addition, the change in vivo at 10 mg/kg in test [3] worked out at 47%. Further, the “reversal of the effect of an electric shock treatment (passive avoidance)” value in test [4] is on record as “reverses the anti-amnesic effect of an electric shock treatment”. Also, the “reversal of the mnesic deficit caused by the septal cholinergic lesion (spontaneous alternation)” value in test [5] is on record as “reverses the mnesic deficit caused by the septal cholinergic lesion”. Besides, in test [6], the ED50 amounted to 13 mg/kg.

For `Cc1ccc2c3c4n(c2c1)CC[C@H]1CCCN(CC3)[C@H]41` (relative stereo) [Example 12, [(±) (16alpha)]-14,15-dihydro-11-methyl-20,21-dinor-eburnamenine], the “RAL (relative affinity, in relation to phentolamine as reference product)” value in test [2] was determined as 39. In test [3], the change in vivo at 10 mg/kg was determined as 18%.

Turning to `Cc1ccc2c(c1)c1c3n2C=C[C@H]2CCCN(CC1)[C@H]32` (relative stereo) [Example 16, [(±) (16alpha)]-10-methyl-20,21-dinoreburnamenine], the “RAL (relative affinity, in relation to phentolamine as reference product)” value in test [2] is listed as 136. For the same compound, the change in vivo at 10 mg/kg in test [3] stood at 22%.

In the case of `Cc1ccc2c(c1)c1c3n2CC[C@H]2CCCN(CC1)[C@H]32` (relative stereo) [Example 18, [(±) (16alpha)]-14,15-dihydro-10-methyl-20,21-dinoreburnamenine], the “RAL (relative affinity, in relation to phentolamine as reference product)” value in test [2] was 39.

As to `COc1ccc2c3c4n(c2c1)[C@@H](O)C[C@H]1CCCN(CC3)[C@H]41` (relative stereo) [Example 21, [(±) (14beta, 16alpha)]-14,15-dihydro-11-methoxy-20,21-dinoreburnamenin-14-ol], the change in vivo at 10 mg/kg in test [3] was 30%.

`COc1ccc2c3c4n(c2c1)[C@H](O)C[C@H]1CCCN(CC3)[C@H]41` (relative stereo) [Example 22, [(±) (14alpha, 16alpha)]-14,15-dihydro-11-methoxy-20,21-dinoreburnamenin-14-ol]: the change in vivo at 10 mg/kg in test [3] turned out to be 18%.

On to `COc1ccc2c3c4n(c2c1)C=C[C@H]1CCCN(CC3)[C@H]41` (relative stereo) [Example 24, [(±) 16alpha]-11-methoxy-20,21-norburnamenine], for which the change in vivo at 10 mg/kg in test [3] came out at 35%.

`COc1ccc2c3c4n(c2c1)CC[C@H]1CCCN(CC3)[C@H]41` (relative stereo) [Example 25, [(±) (16alpha)]-14,15-dihydro-11-methoxy-20,21-dinoreburnamenine]: in test [3], the change in vivo at 10 mg/kg was 20%.

As for `COc1ccc2c(c1)c1c3n2[C@H](O)C[C@H]2CCCN(CC1)[C@H]32` (relative stereo) [Example 28, [(±) (14alpha, 16alpha)]-14,15-dihydro-10-methoxy-20,21-dinoreburnamenin-14-ol], the change in vivo at 10 mg/kg in test [3] is 35%.

As to `COc1ccc2c(c1)c1c3n2C=C[C@H]2CCCN(CC1)[C@H]32` (relative stereo) [Example 29, [(±) (16alpha)]-10-methoxy-20,21-dinoreburnamenine], the change in vivo at 10 mg/kg in test [3] worked out at 25%.

With `O=[N+]([O-])c1ccc2c3c4n(c2c1)C=C[C@H]1CCCN(CC3)[C@H]41` (relative stereo) [Example 39, [(±) (16alpha)]-11-nitro-20,21-dinoreburnamenine], the “% of increase in survival time” value in test [1] was 14%.

As for `O=[N+]([O-])c1cccc2c1c1c3n2C=C[C@H]2CCCN(CC1)[C@H]32` (relative stereo) [Example 41, [(±) (16alpha)]-9-nitro-20,21-dinoreburnamenine], the “% of increase in survival time” value in test [1] is listed as 13%.
